Laboratory results taken from patent US12036022B2, “Transcutaneous organ function measurement” (MediBeacon Inc., priority 2008, dated 2024).

Test: Half-life (renal excretion) after intravenous administration to rats
Conditions: rat, in vivo
Description: The chromatographically separated fractions F5 and F10 were derivatized with fluorescein isothiocyanate (FITC) to form FITC-F5 and FITC-F10. FITC-F10 was administered to rats intravenously. The interstitial fluorescence of the FITC measured at an excitation wavelength of 485-520 nm was determined. The fluorescence in the serum was measured as a control.

- half-life: 25.02 ± 1.67 min
Substance: sinistrin
